According to patent US20060258703A1, “Remedy for pruritus comprising piperidine derivative as the active ingredient” (ONO PHARMACEUTICAL CO., LTD., priority 2003, published 2006):

System: ovalbumin-induced eye scratching behavior in actively sensitized male Hartley guinea pigs
Test: inhibitory effect on eye itching using albumin induced eye itching model
Format: in vivo, guinea pig
Conditions: for number of eye scratching times / eye scratching behavior inhibition ratio: 10 μL/eye instilled 30 min before ovalbumin, n=8; for number of eye scratching times: counted for 60 min, average; for eye scratching behavior inhibition ratio: ratio to control (average)
Procedure: The inhibitory effect on eye itching of piperidine derivatives of the present invention was studied using albumin induced eye itching model.
1. The test of inhibitory effect on eye itching using albumin induced eye itching model
Aluminum hydroxide gel absorption ovalbumin (20 μg/mL)was dissolved in physiological saline solution, each solution ([…]) was injected subconjunctivally to the both eyeballs of five-week-old male Hartley guinea pigs to sensitize them actively. 14 days after sensitization, 1.0% (W/V) of ovalbumin physiological saline solution was instilled into both their eyes, 10 μL/eye, respectively.
As test compounds, a suspension of 0.01% (W/V) and 0.1% (W/V) of {4-cyano-4-[3-(cyclopentyloxy)-4-(difluoromethoxy)phenyl]piperidine-1-yl}acetic acid monohydrate (hereinafter, it is the compound A) in 0.1% hydroxypropylmethylcellulose was prepared and it was instilled into both eyes of the above-mentioned guinea pigs, 10 μL/eye, respectively, 30 minutes before the instillation of ovalbumin. 0.1% hydroxypropylmethylcellulose was used as control.
The behavior of guinea pigs for 60 minutes after ovalbumin instillation was video recorded. The inhibitory effect on eye itching was evaluated by counting each number of eye scratching times in case of instillation of each test compound solution and control. […] In addition, the number of example is eight. eye scratching behavior inhibition ratio=100−([the number of eye scratching times of the test compound]÷[the number of eye scratching times of control])×100

## N#CC1(c2ccc(OC(F)F)c(OC3CCCC3)c2)CCN(CC(=O)O)CC1.O [Compound A, {4-cyano-4-[3-(cyclopentyloxy)-4-(difluoromethoxy)phenyl]piperidine-1-yl}acetic acid monohydrate]
0.01% (W/V) suspension in 0.1% hydroxypropylmethylcellulose
  number of eye scratching times: 44.6 times
0.01% (W/V) suspension
  eye scratching behavior inhibition ratio: 34.4%
0.1% (W/V) suspension in 0.1% hydroxypropylmethylcellulose
  number of eye scratching times: 29.0 times
0.1% (W/V) suspension
  eye scratching behavior inhibition ratio: 57.4%
Guinea pigs given 0.01% and 0.1% eye instillation, extent almost depends on concentration
  number of eye scratching times compared to control (in words): decreases significantly compared to control
